Where two headings read alike, the source gives them in different places. Values belong to the compound of their own block, whether it stands above or below them.
Key:
FR2 = FR2 (Homo sapiens, UniProt P14207); conditions: read-out: affinity; cited from earlier work
FR1 = FR1 (Homo sapiens, UniProt P15328); conditions: read-out: affinity; cited from earlier work
[1] = Pharmacokinetic studies, single oral and intravenous dose; assay type: in vivo, BALB/c mice; conditions: male, BALB/c, mouse, plasma, analyte PhosE; for Cmax: read-out: Cmax/C0
Experimental: (§1) Samples (100 μl) were drawn at 0, 15, 30 and 60 min from SGF reaction-vials and at 0, 30, 60 and 120 min from SIF reaction-vials, quenched with acetonitrile, vortex-mixed, and centrifuged before supernatant analysis by LC-MS/MS analysis. […] For PK studies, a sparse sampling design with 3 mice per time point was used to collect blood samples at 5, 10, 15, 30 min and 1, 2, 3, 4, 5 and 6 h in K2EDTA-coated tubes. The pharmacokinetic parameters (AUClast, Cmax, CL and Vss) were calculated using non-compartmental analysis tool of Phoenix WinNonlin software (version 6.3).
Nine animals per group were used for PK studies. A sparse sampling design was used to collect blood samples from animals at 5 min, 10 min, 15 min, 30 min, 1, 2, 3, 4, 5, and 6 h in K2EDTA coated tubes. Plasma was collected from blood by centrifugation of samples at 8000 g for 10 min. Plasma samples were stored below −60° C. until further analysis.
PK parameters were calculated from the concentration-time data using the non-compartmental analysis tool of Phoenix WinNolin® software (version 6.3, Pharsight, St Louis, Mo.). The area under the concentration time curve (AUClast) was calculated by the linear trapezoidal rule. Following oral administration, peak concentration (Cmax) and time for the peak concentration (Tmax) were the observed values. The clearance (CL) and volume of distribution (Vss) were estimated following IV dose administration. The elimination rate constant value (k) was obtained by linear regression of the log-linear terminal phase of the concentration-time profile using at least three declining concentrations in terminal phase with a correlation coefficient of >0.8. The terminal half-life value (T1/2) was calculated using the equation ln 2/k. Oral bioavailability was calculated by taking the ratio of dose normalized AUClast following oral administration to IV administration.

CYP2E1 = CYP2E1 (Homo sapiens, UniProt P05181); experiment: CYP inhibition in human liver microsomes
PC-3 cells [2] = experiment: Intracellular levels of Etn and PhosE by LC-MS/MS; assay type: cell-based, human; conditions: 1 mg/ml, 48 h, pH 7.4
CYP1A2 = CYP1A2 (Homo sapiens, UniProt P05177); experiment: CYP inhibition in human liver microsomes
Sequence of CYP1A2 (P05177 whole entry): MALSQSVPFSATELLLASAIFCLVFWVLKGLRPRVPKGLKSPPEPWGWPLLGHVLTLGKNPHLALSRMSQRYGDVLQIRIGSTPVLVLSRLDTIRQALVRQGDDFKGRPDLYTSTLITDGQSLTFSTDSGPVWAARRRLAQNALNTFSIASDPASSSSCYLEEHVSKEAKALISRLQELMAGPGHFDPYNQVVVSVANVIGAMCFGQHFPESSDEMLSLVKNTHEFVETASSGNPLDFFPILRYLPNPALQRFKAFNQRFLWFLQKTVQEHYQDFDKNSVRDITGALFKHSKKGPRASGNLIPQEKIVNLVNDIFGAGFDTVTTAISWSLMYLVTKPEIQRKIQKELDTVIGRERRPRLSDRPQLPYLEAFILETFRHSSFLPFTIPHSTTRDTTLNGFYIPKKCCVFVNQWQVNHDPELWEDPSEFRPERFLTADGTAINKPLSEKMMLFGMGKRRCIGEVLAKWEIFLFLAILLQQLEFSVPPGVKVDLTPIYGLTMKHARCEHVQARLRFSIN

CYP2C8 = CYP2C8 (Homo sapiens, UniProt P10632); experiment: CYP inhibition in human liver microsomes
Sequence of CYP2C8 (P10632 whole entry): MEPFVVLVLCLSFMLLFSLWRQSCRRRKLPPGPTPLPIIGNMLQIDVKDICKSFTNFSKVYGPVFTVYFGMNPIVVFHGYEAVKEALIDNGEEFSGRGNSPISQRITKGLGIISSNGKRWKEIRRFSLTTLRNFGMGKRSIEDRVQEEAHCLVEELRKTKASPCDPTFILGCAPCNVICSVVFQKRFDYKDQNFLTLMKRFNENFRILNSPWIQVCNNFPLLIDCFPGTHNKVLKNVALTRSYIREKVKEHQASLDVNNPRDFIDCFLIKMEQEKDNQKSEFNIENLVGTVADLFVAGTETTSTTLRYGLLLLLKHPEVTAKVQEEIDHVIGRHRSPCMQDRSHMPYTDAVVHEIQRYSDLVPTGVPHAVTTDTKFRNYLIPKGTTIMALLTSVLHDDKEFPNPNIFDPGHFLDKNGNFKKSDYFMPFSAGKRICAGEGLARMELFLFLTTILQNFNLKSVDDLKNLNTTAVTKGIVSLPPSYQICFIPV

[3] = Stability in simulated intestinal fluid (SIF); assay type: in vitro ADME; conditions: 10 μM, SIF pH 6.8, after 2 h
Experimental: as §1
(§2) Given the extreme pH and various digestive enzymes, the GI tract presents a harsh environment to any ingested xenobiotic. Thus, many potential drug candidates are degraded in the GI tract, explaining their decreased bioavailability or inability to reach the target at effective concentrations. Simulated gastric fluid (SGF; pH 1.2) and simulated intestinal fluid (SIF; pH 6.8) closely mimic the GI tract environment and are amenable in vitro systems to evaluate degradation of a compound in GI tract (US Pharmacopoia).
(§3) Simulated gastric fluid was prepared as per U.S. Pharmacopeia (USP) methods. Sodium chloride (2 g) and pepsin (3.2 g, from porcine stomach mucosa) were dissolved in 7.0 ml hydrochloric acid and Milli-Q water to make up the volume to 1000 ml and the pH was adjusted to 1.2. […]

[4] = Stability in simulated gastric fluid (SGF); assay type: in vitro ADME; conditions: 10 μM, SGF pH 1.2, over 1 h
Experimental: as §1, §2, §3

CYP3A4 = CYP3A4 (Homo sapiens, UniProt P08684); experiment: CYP inhibition in human liver microsomes
Sequence of CYP3A4 (P08684 whole entry): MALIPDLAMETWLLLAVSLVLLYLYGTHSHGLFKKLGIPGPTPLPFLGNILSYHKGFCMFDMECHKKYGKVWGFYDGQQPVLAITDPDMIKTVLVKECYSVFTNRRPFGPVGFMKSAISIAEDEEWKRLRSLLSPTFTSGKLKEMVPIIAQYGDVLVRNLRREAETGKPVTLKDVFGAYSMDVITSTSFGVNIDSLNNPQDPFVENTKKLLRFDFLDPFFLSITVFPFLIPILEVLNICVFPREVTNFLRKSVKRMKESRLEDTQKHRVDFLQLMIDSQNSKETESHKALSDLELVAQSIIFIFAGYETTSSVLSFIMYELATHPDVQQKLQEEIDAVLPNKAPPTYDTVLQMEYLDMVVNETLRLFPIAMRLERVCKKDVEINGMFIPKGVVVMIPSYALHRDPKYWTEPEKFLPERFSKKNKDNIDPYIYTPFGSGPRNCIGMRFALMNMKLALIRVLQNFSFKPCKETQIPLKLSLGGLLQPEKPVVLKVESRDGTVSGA

CYP2C9 = CYP2C9 (Homo sapiens, UniProt P11712); experiment: CYP inhibition in human liver microsomes
CYP2A6 = CYP2A6 (Homo sapiens, UniProt P11509); experiment: CYP inhibition in human liver microsomes
Sequence of CYP2A6 (P11509 whole entry): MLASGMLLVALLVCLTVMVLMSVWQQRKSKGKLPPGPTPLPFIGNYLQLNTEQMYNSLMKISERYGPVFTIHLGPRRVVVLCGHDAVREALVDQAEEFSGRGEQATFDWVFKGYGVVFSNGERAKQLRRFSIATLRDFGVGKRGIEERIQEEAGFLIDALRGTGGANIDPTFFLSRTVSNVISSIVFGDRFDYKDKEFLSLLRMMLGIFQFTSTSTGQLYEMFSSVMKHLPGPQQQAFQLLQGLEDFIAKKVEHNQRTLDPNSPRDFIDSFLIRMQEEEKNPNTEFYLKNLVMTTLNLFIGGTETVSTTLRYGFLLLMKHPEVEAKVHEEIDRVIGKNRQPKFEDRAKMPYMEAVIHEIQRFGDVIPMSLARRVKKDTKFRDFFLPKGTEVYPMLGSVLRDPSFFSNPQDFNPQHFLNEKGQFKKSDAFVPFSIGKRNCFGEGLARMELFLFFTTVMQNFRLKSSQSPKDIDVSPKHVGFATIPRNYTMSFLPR

CYP2B6 = CYP2B6 (Homo sapiens, UniProt P20813); experiment: CYP inhibition in human liver microsomes
Sequence of CYP2B6 (P20813 whole entry): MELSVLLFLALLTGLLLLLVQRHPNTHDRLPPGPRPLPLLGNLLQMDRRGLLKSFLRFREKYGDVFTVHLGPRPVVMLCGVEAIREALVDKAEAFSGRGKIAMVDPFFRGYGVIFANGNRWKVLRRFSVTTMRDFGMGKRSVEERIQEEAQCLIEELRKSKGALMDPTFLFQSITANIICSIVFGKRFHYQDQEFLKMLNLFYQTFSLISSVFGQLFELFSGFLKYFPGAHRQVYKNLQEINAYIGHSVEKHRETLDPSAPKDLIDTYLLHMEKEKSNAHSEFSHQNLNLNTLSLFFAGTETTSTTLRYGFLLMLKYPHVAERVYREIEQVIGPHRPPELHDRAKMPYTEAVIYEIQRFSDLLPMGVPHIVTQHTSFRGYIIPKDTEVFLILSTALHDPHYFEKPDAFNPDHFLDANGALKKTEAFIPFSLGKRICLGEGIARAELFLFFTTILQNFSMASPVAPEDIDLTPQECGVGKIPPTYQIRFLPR

PC-3 cells [5] = experiment: Clonogenic cell survival (colony) assay; assay type: cell-based, human; conditions: 2 mg/ml, 48 h treatment, colonies after 10 days
Experimental: (§4) Next, a clonogenic cell survival assay was performed to assess the reproductive capacity of cells upon drug removal.
(§5) After 48 h, drug containing medium was replaced by medium containing MTT (tetrazolium bromide) at a concentration of 0.5 mg/ml. The yellow tetrazolium salt is reduced to insoluble purple formazan by viable cells. After 4 h of incubation in dark, formazan crystals produced by viable cells were dissolved by 200 μl DMSO and the amount of formazan crystals formed was quantified by recording the absorbance at 570 nm using multi-well plate reader. […] After 10 days, colonies were fixed with 4% formaldehyde, stained with crystal violet and counted.

CYP2C19 = CYP2C19 (Homo sapiens, UniProt P33261); experiment: CYP inhibition in human liver microsomes
[6] = Blood plasma concentration ratio assay; assay type: in vitro ADME, mice; conditions: whole blood; mouse blood, 37° C.; read-out: Blood to plasma ratio (BPR)
Experimental: Values and error bars shown in the figure represent mean and SE, respectively.
100 μl and 300 μl aliquots were collected at time points 0, 15, 30 and 60 min. 100 μl water was added to each of the 100 μl aliquots followed by vortexing, centrifugation at 8000 g for 10 min, and collection of the supernatants for bioanalysis. The 300 μL aliquots were centrifuged at 8000 g for 10 min to separate the plasma, followed by collection of the supernatants for bioanalysis.

PC-3 cells [7] = experiment: MTT cell proliferation assay; assay type: cell-based, human; conditions: MTT, 48 h, pH 7.4
Experimental: as §4, §5

CYP2D6 = CYP2D6 (Homo sapiens, UniProt P10635); experiment: CYP inhibition in human liver microsomes
[8] = system: BT-549 breast cancer cells; conditions: cells with amplified centrosomes; cited from earlier work
KIFC1 = KIFC1 (Homo sapiens, UniProt Q9BW19); conditions: ATP-competitive, MT-noncompetitive; cited from earlier work
Sequence of KIFC1 (Q9BW19 whole entry, species assumed): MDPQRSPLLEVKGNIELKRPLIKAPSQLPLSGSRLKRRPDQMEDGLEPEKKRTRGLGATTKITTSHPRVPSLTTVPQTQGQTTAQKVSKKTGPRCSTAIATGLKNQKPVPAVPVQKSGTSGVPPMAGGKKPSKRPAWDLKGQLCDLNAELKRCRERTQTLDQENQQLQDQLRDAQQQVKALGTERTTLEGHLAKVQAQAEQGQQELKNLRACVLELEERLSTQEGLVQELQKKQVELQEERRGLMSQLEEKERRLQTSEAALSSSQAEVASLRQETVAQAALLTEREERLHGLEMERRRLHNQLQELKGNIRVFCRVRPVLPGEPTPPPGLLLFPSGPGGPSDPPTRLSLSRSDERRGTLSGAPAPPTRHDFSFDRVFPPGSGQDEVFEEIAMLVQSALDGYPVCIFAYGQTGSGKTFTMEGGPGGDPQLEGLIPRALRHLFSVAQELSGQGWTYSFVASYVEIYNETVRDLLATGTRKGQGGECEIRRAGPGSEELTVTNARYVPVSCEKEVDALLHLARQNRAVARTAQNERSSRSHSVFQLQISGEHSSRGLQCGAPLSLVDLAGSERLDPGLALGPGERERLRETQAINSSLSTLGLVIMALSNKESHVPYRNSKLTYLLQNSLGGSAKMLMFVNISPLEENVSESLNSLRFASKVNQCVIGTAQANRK
Sequence of KIFC1 (P68363 whole entry partner, species assumed): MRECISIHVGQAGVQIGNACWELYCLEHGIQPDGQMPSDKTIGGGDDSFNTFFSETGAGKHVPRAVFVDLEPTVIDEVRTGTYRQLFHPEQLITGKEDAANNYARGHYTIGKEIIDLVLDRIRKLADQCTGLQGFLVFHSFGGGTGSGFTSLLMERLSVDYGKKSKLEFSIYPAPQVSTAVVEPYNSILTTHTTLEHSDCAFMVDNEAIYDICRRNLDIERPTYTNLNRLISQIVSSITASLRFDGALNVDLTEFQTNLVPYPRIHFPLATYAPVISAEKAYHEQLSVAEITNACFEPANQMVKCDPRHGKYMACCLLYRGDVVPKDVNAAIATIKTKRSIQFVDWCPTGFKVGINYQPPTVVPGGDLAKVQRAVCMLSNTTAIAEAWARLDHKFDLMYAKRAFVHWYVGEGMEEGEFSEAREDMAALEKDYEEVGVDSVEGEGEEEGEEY
Sequence of KIFC1 (Q9BVA1 whole entry partner, species assumed): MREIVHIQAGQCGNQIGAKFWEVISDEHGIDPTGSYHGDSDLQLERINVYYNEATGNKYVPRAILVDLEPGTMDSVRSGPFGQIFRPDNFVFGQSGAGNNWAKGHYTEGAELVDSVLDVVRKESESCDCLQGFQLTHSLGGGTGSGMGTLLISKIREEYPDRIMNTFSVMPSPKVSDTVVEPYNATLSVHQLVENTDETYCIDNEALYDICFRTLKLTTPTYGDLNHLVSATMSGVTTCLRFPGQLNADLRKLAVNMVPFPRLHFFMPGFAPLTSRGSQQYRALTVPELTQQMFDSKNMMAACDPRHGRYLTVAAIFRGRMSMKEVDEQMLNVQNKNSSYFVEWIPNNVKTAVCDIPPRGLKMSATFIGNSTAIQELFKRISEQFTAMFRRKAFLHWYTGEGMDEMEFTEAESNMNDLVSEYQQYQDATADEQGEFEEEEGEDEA

Sequence of FR2 (P14207 17-230): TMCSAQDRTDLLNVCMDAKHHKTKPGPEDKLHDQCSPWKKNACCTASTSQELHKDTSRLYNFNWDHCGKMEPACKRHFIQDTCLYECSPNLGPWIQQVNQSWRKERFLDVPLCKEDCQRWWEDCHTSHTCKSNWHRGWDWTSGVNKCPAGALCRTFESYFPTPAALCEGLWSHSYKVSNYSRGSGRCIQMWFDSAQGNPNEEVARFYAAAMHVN
Sequence of FR1 (P15328 25-234): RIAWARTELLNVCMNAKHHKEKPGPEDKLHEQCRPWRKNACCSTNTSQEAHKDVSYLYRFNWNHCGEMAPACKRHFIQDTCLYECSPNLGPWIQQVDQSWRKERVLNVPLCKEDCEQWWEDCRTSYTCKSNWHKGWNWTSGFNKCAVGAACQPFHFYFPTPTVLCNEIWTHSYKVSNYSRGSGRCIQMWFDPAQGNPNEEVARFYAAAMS

SMILES: Nc1nc2c(c(=O)[nH]1)N(C=O)C(CNc1ccc(C(=O)N[C@@H](CCC(=O)O)C(=O)O)cc1)CN2 (stereo partly drawn) [leucovorin, 6S 5-formyltetrahydrofolate]
- Kd (FR2): 0.007 µM
- Kd (FR1): 0.8 µM

SMILES: CN1c2c(nc(N)[nH]c2=O)NC[C@@H]1CNc1ccc(C(=O)N[C@@H](CCC(=O)O)C(=O)O)cc1 [6S 5-methyltetrahydrofolate]
- Kd (FR2): 0.001 µM
- Kd (FR1): 0.055 µM

- half-life ([1]; iv, 3 mg/kg, PhosE 3 mg/kg iv): < 1 h
- AUC(0-t) ([1]; PhosE 3 mg/kg iv): 490 ng·h/mL
- MRT last ([1]; PhosE 3 mg/kg iv): 0.79 h
- clearance ([1]; PhosE 3 mg/kg iv): 102 mL/min/kg
- Cmax ([1]; PhosE 3 mg/kg iv): 1250 ng/mL
- Vd ([1]; PhosE 3 mg/kg iv, read-out: Vss): 4.82 L/kg
- bioavailability ([1]; PhosE 60 mg/kg po vs 3 mg/kg iv, read-out: F (oral bioavailability)): 19%
- AUC(0-t) ([1]; PhosE 60 mg/kg po): 1890 ng·h/mL
- Tmax ([1]; PhosE 60 mg/kg po): 1 h
- Cmax ([1]; PhosE 60 mg/kg po): 1140 ng/mL
- IC50 (CYP2E1): > 100 µM
- IC50 (CYP1A2): > 100 µM
- IC50 (CYP2C8): > 100 µM
- decrease in concentration in SIF [3]: ~35%
- stability in SGF [4]: stable
- IC50 (CYP3A4): > 100 µM
- IC50 (CYP3A4; 3A4-mida: CYP3A4 substrate midazolam, human liver microsomes): > 100 µM
- IC50 (CYP3A4; 3A4-testo: CYP3A4 substrate testosterone, human liver microsomes): > 100 µM
- IC50 (CYP2C9): > 100 µM
- IC50 (CYP2A6): > 100 µM
- IC50 (CYP2B6): > 100 µM
- IC50 (CYP2C19): > 100 µM
- blood plasma ratio at 50 μM [6]: < 1.5
- IC50 (CYP2D6): > 100 µM
SMILES: NCCOP(=O)(O)O [PhosE, phosphoethanolamine]
- increase in intracellular PhosE levels compared to control cells (PC-3 cells [2]): ~15 fold
- decrease in colony numbers compared to control cells (PC-3 cells [5]): ineffective in decreasing colony numbers
- inhibition of PC-3 cell proliferation (PC-3 cells [7]): only showed limited inhibition of PC-3 cell proliferation up to 0.5 mg/ml

SMILES: CCCc1cc(C(=O)N[C@H](Cc2ccc(-c3cccc(OC(F)(F)F)c3)nc2)C(=O)N[C@@H]2CCNC2)sc1C [AZ82]
- centrosome declustering [8]: causes centrosome declustering
- Ki (KIFC1): 0.043 µM

— patent publication US11607421B2, “Ethanolamine-based lipid biosynthetic compounds, method of making and use thereof” (Metanoi Therapeutics, Inc., priority 2016, dated 2023)
